Data reported in article PMC7415810, “A novel nucleolin-binding peptide for Cancer Theranostics” (Theranostics, 2020).

What was measured:
MDA-MB-231 cells = experiment: Time-dependent binding/internalization of AGM-330-FITC, confocal microscopy; type: cell-based, human; settings: 5 μmol/l, 37 °C, 1, 3, 6 and 12 h, confocal fluorescence
Experimental: We evaluated the specificity of AGM-330 to NCL with cell binding assays against different cell lines using fluorescence microscopy. The experiment was performed using multiple cancer cell lines, MCF-7, MDA-MB-231, HT-29, and HCT-116, and normal cell lines, MCF-10A, and CCD-18Co. The binding specificity was determined by confocal imaging after 1 h of incubation of the cells with 5 μmol/l AGM-330-FITC. The cells were incubated with DAPI to counterstain the nuclei (blue fluorescence). […] To evaluate the ability of AGM-330 to undergo NCL-mediated endocytosis, MDA-MB-231 cells were incubated with AGM-330-FITC at 37 °C for different times (1, 3, 6 and 12 h). […] As mentioned in a previous study, N6L is essentially built on a lysine-rich helicoid template formed by a repeat of 6 tripeptide units. […] Therefore, the difference in the molecular structure between AGM-330 and N6L may be caused by different endocytosis mechanisms. […] However, except for membrane NCL, we could not confirm the protein associated with internalization among the proteins bound to AGM-330 (Figure 2D). Taken together, N6L, which binds to both membrane NCL and nucleophosmin, induce apoptosis after internalization into nucleolus of cancer cells.
Figure S6. Time-dependent in vitro binding assay of AGM-330-FITC toward cancer cells. MDA-MB-231 cells were incubated with 5 μmol/l AGM-330-FITC for 1, 3, 6 and 12 h at 37 °C. […]

[1] = tested on: normal cells (MCF-10A, CCD-18Co); experiment: Flow cytometry binding of FITC-labeled peptide; type: cell-based, human; settings: 1 × 10^5 cells, 2 h at 37 °C, serum-free medium
Experimental: (§1) Fluorescence-activated cell-sorting (FACS) analysis was used to check the binding of the FITC labeled peptides (FITC-peptide). The stock solution for the FITC-peptides (100 μM) was prepared by dissolving the peptide in PBS. MCF-10A, MCF-7, MDA-MB-231, CCD-18Co, HT-29, and HCT-116 cells were seeded in 6-well plates (10^5 cells/well) containing 3 ml of medium, and the plates were then incubated at 37 °C overnight. […] Thereafter, the medium was removed, and the cells were washed with cold PBS to remove any remaining peptide. Adequate trypsin/EDTA was added to each well, which was followed by a 3 ~ 5 min incubation at 37 °C. Trypsin/EDTA was immediately neutralized by adding medium, and the cell suspension was then transferred into centrifuge tubes. The cells were separated and washed twice with PBS. […] The prepared cells were analyzed on a FACScanto II (BD Biosciences, San Jose, CA, USA) flow cytometer, and the FACS data were analyzed using FlowJo (TreeStar, Ashland, OR, USA).
(§2) Next, to examine whether the MAP ligand can selectively bind to cancer cells, cancer cells treated with FITC-labeled AGM-330 (AGM-330-FITC) were compared with untreated cells. […] Then, the inherent fluorescence of peptide-treated cells were compared and measured based on changes in the mean fluorescence intensity (MFI) values compared to those of untreated cells (Figure 1D and E).

[2] = tested on: cancer cells (MCF-7, MDA-MB-231, HT-29, HCT-116); experiment: Flow cytometry binding of FITC-labeled peptide; type: cell-based, human; settings: 1 × 10^5 cells, 2 h at 37 °C, serum-free medium
Experimental: as §1, §2

[3] = Release of PTX in vitro (linker hydrolysis) in human serum; type: in vitro ADME; settings: 100 μM stock diluted 10-fold in 100% human serum, 37 °C, HPLC, triplicate
Experimental: (§3) Stock solutions of AGM-330-PTX (100 μM) were diluted 10-fold with pre-warmed 100% human serum (Sigma-Aldrich) or PBS and incubated at 37 °C for 0, 1, 2, 6 and 12 h. […] Each experiment was performed in triplicate.
(§4) Figure S10. A, B, Changes in the HPLC chromatogram of AGM-330-PTX after incubation with human serum (A) or PBS (B). C, D, MS spectra of AGM-330-PTX (C) and AGM-330 (D). E, Time-dependent fluorescence imaging of AGM-330-PTX-Rh in MDA-MB-231 cells. Cells were incubated with 5 μmol/l AGM-330-PTX-Rh. […]
(§5) bit secondary antibody coupled to Alexa Fluor 488. Cells were then fixed with 4 % paraformaldehyde, and the nuclei were stained with DAPI. MERGE represents a merged image of AGM-330, PTX, and nuclear staining by […]

[4] = Release of PTX in vitro (linker hydrolysis) in PBS; type: physicochemical; settings: 100 μM stock diluted 10-fold in PBS, 37 °C, HPLC, triplicate
Experimental: as §3, §4, §5

MDA-MB-231-luc xenograft = experiment: Tumorigenesis experiment, MDA-MB-231-luc breast cancer xenograft
Experimental: All animal experiments were performed in accordance with IACUC guidelines (GIST-2019-040). For tumorigenesis experiments, anesthetized 6-week-old female NOD-scid Il2rg^-^/^- mice (NPG^TM, VITALSTAR) were inoculated in the mammary fat pad with 1 × 10^6 MDA-MB-231-luc cells in a 100 μl volume (n = 5 for each group). After tumor cell inoculation, when the tumor volume reached approximately 100 mm^3, the mice were randomly divided into the following five groups: (i) control, (ii) low-dose paclitaxel (2 mg/kg), (iii) high-dose paclitaxel (10 mg/kg), (iv) AGM-330 (16.68 mg/kg, molar equivalent to 2 mg/kg of PTX), and (v) AGM-330-PTX (19.05 mg/kg, molar equivalent to 2 mg/kg of PTX). The tumor size was measured twice a week, and the tumor volume was calculated with the following formula: volume (mm^3) = [length (mm)] × [width (mm)]^2 × 0.5. For the bioluminescent imaging experiment, D-luciferin (150 mg/kg; PerkinElmer) was intraperitoneally injected into each mouse, and an IVIS 100 imaging system (Xenogen, Corporation, Alameda, CA) was used for bioluminescent monitoring. Mice were anesthetized with vaporized isofurane (BK Pharm, Ilsan, Korea) and placed in an imaging chamber. After 10 min, each animal was imaged with an exposure time of 1 min. All bioluminescent image data were obtained using Living Image software (version 4.5.2, PerkinElmer). Photons detected from tumors were converted to average radiance values (photon/sec/cm^2/sr), which are quantitative data obtained from a region of […] (ROI) and include the photons emitted by bioluminescent cells from an assigned rectangular area over the whole body of each mouse.
A, Cell proliferation inhibition by AGM-330-PTX treatment was determined for 48 h by the WST assay in multiple breast and colorectal cancer cells and in normal cells. B, Schematic representation of the experimental protocol as described in the materials and methods section. Anesthetized 6‑week-old […] NPG mice were inoculated with a 1:1 mix of Matrigel and 1 × 10^6 MDA-MB-231-luc cells into the mammary fat pad. When the volume of primary tumors reached approximately 100 mm^3, tumor-bearing mice were treated with vehicle (PBS), PTX (2 or 10 mg/kg), AGM-330 (16.68 mg/kg, molar equivalent to 2 mg/kg of PTX), or AGM-330-PTX (19.05 mg/kg, molar equivalent to 2 mg/kg of PTX; n = 5/group). C-E, The therapeutic effect of AGM-330-PTX was evaluated in breast cancer xenograft models. C, Primary tumor volume was measured twice a week until the day of sacrifice. The primary tumor volume was calculated by the formula volume (mm^3) = (length (mm)) × (width (mm))^2 × 0.5. D, On the day of sacrifice, all primary tumors were isolated, and (E) the primary tumor weights were evaluated. F-I, Immunohistochemistry (IHC) sections of representative tumors with Ki-67 (F,H) and TUNEL (G,I) staining. Nuclei were stained with DAPI (blue). Scale bar, 50 µm. Bar graphs represent the mean ± SD, and statistical analyses were performed by one-way ANOVA with Dunnett's multiple comparison. *, **, and *** indicate P < 0.05, P < 0.01, and P < 0.001, respectively.
Following in vitro proliferation analysis on cancer lines, we investigated whether AGM-330-PTX could be a potential therapeutic agent in vivo. We inoculated MDA-MB-231-luc cells into the mammary fat pad of NPG mice. After the […] tumors grew to 100 mm^3, comparative efficacy studies were performed by dividing the animals into five groups (n = 5/group) treated with vehicle (PBS), PTX (2 or 10 mg/kg, respectively), AGM-330 (16.68 mg/kg, molar equivalent to 2 mg/kg of PTX), or AGM-330-PTX (19.05 mg/kg, molar equivalent to 2 mg/kg of PTX) twice a week by tail vein injection (Figure 5B). Tumor growth was monitored by measuring volumes twice a week with a caliber rule over the course of 3 weeks.
Figure S11. A-E, NPG TM mice bearing MDA-MB-231-luc tumors were treated twice a week for 21 days with […]

[5] = AGM-330-PTX treatment, xenograft

Row | Compound | cellular uptake / internalization (MDA-MB-231 cells) | binding to normal cells (MFI) [1] | binding to cancer cells (MFI relative to untreated cells) [2] | hydrolysis of the propionic acid linker (release of PTX) in serum [3] | hydrolysis of the propionic acid linker (release of PTX) in PBS [4] | average tumor volume (MDA-MB-231-luc xenograft; 19.05 mg/kg (molar equivalent to 2 mg/kg of PTX), tail vein twice a week, day 21, n = 5) | final average tumor weight (MDA-MB-231-luc xenograft; 19.05 mg/kg (molar equivalent to 2 mg/kg of PTX), tail vein twice a week, n = 5) | blood chemistry analysis (ALB, GOT, GPT, TP-PS, UA in serum) (MDA-MB-231-luc xenograft; 19.05 mg/kg twice a week for 21 days, n = 5) | mouse body weight versus vehicle (PBS) (MDA-MB-231-luc xenograft; 19.05 mg/kg twice a week, 3 weeks, n = 5) | histology of excised tumors (H&E, Ki-67, TUNEL) (MDA-MB-231-luc xenograft; 19.05 mg/kg twice a week, excised tumors) | decrease of average tumor volume with respect to the same dose PTX (MDA-MB-231-luc xenograft; 19.05 mg/kg versus PTX 2 mg/kg, n = 5) | decrease in tumor volume compared with the PBS-treated group (MDA-MB-231-luc xenograft; [5]) | decrease in tumor weight compared with the PBS-treated group (MDA-MB-231-luc xenograft; [5])
1 | AGM-330-FITC (RHGAMVYLK; PEG12 after the C-terminal Lys of each RHGAMVYLK arm, joined to a trilysine core; FITC (by FITC-5-maleimide)) | not taken up by the cytoplasm or nucleolus | significant decrease in binding to normal cells | significant cancer cell binding | – | – | – | – | – | – | – | – | – | –
2 | CSCC[C@H](NC(=O)[C@H](C)NC(=O)CNC(=O)[C@H](Cc1c[nH]cn1)NC(=O)[C@@H](N)CCCNC(=N)N)C(=O)N[C@H](C(=O)N[C@@H](Cc1ccc(O)cc1)C(=O)N[C@@H](CC(C)C)C(=O)N[C@@H](CCCCN)C(=O)NCCOCCOCCOCCOCCOCCOCCOCCOCCOCCOCCOCCOCCC(=O)NCCCC[C@H](NC(=O)CCOCCOCCOCCOCCOCCOCCOCCOCCOCCOCCOCCOCCNC(=O)[C@H](CCCCN)NC(=O)[C@H](CC(C)C)NC(=O)[C@H](Cc1ccc(O)cc1)NC(=O)[C@@H](NC(=O)[C@H](CCSC)NC(=O)[C@H](C)NC(=O)CNC(=O)[C@H](Cc1c[nH]cn1)NC(=O)[C@@H](N)CCCNC(=N)N)C(C)C)C(=O)NCCCC[C@H](NC(=O)[C@H](CCCCNC(=O)CCOCCOCCOCCOCCOCCOCCOCCOCCOCCOCCOCCOCCNC(=O)[C@H](CCCCN)NC(=O)[C@H](CC(C)C)NC(=O)[C@H](Cc1ccc(O)cc1)NC(=O)[C@@H](NC(=O)[C@H](CCSC)NC(=O)[C@H](C)NC(=O)CNC(=O)[C@H](Cc1c[nH]cn1)NC(=O)[C@@H](N)CCCNC(=N)N)C(C)C)NC(=O)CCOCCOCCOCCOCCOCCOCCOCCOCCOCCOCCOCCOCCNC(=O)[C@H](CCCCN)NC(=O)[C@H](CC(C)C)NC(=O)[C@H](Cc1ccc(O)cc1)NC(=O)[C@@H](NC(=O)[C@H](CCSC)NC(=O)[C@H](C)NC(=O)CNC(=O)[C@H](Cc1c[nH]cn1)NC(=O)[C@@H](N)CCCNC(=N)N)C(C)C)C(=O)N[C@@H](CSC1CC(=O)N(CCC(=O)O[C@@H](C(=O)O[C@H]2C[C@@]3(O)[C@@H](OC(=O)c4ccccc4)[C@@H]4[C@]5(OC(C)=O)CO[C@@H]5C[C@H](O)[C@@]4(C)C(=O)[C@H](OC(C)=O)C(=C2C)C3(C)C)[C@@H](NC(=O)c2ccccc2)c2ccccc2)C1=O)C(=O)O)C(C)C (stereo partly shown) [AGM-330-PTX] | – | – | – | almost completely hydrolyzed after 2 h | fully hydrolyzed in PBS after 12 h | 807 ± 90 mm^3 | 1.3 ± 0.1 g | no adverse signs of toxicity | not affected | a reduction in the number of cancerous cells and an increase in apoptotic cell nuclei | approximately 52% | 63% | 43%
